Like-named read-outs stand apart in the source and are kept apart here. Marks after values point to notes of the source that are not given here.
How the values were obtained:
[1] = test system: PBMCs; experiment: PBMC cytotoxicity; assay type: cell-based, human; settings: six days, MTS, concentration that reduces cell viability by 50%
[2] = test system: MAGI-CCR5 cells; experiment: MAGI-CCR5 parallel cytotoxicity testing; assay type: cell-based; settings: for MAGI-CCR5 TC50: uninfected MAGI-CCR5 cells, 48 h, MTS, concentration that reduces cell viability by 50%; for TC50 (NL4-3 row) / TC50 (A17 row): MAGI-CCR5 cells; for TC50 (NL4-3 row): printed in the NL4-3 line of Tables 7 and 10; for TC50 (A17 row): printed in the A17 line of Table 10
[3] = test system: HIV-1Ba-L; experiment: MAGI-CCR5 antiviral assay; assay type: cell-based; settings: for IC50: concentration that reduces viral replication by 50%; for IC90: read-out: MAGI-CCR5 IC90, concentration that reduces viral replication by 90%
[4] = test system: HIV wildtype (NL4-3); experiment: MAGI-CCR5 antiviral assay, HIV wildtype; assay type: cell-based; settings: HIV wildtype (NL4-3) in MAGI-CCR5 cells; for IC50: read-out: IC50, virus NL4-3; for IC90: read-out: IC90, virus NL4-3
[5] = Parallel artificial membrane permeation assay; settings: for Papp at 100 μM: PAMPA, pH 7.2
[6] = molecular target: HIV-1 reverse transcriptase (RT) (Human immunodeficiency virus type 1 group M subtype B, UniProt P04585); experiment: RT biochemical assay; settings: 10 nM HIV-1 RT, 37 °C, 1 h
[7] = Plasma stability in vitro assay; assay type: in vitro ADME; settings: percent remaining after incubation for 60 min. at 37 °C, heparinized rat plasma
[8] = Microsomal stability in vitro assay; assay type: in vitro ADME; settings: percent remaining after incubation for 60 min. at 37 °C, rat liver microsomes
[9] = read-out: MAGI-CCR5 IC50, HIV-1Ba-L in MAGI-CCR5 cells, 48 h
[10] = HIV-1Ba-L in MAGI-CCR5 cells, 48 h
[11] = Human immunodeficiency virus 1, MAGI-CCR5, 48 h, read-out: MAGI-CCR5 IC50, HIV-1Ba-L in MAGI-CCR5 cells, 48 h

Molecule: 4-(2-(6-Methyl-2-oxo-4-(quinolin-4-yl)-1,2,3,4-tetrahydropyrimidin-5-yl)thiazol-4-yl)benzonitrile [1ab]
- PBMC TC50 [1]: >100.00 µM
- MAGI-CCR5 TC50 [2]: >100.00 µM
- IC50 [3, 9]: 1.5 ± 0.3 µM
- IC90 [3, 10]: 12.7 ± 3.6 µM

Molecule: Cc1ccnc2c1NC(=O)c1cccnc1N2C1CC1 [NVP, nevirapine, reference compound]
- IC50 [4]: 0.07 ± 0.03 µM
- IC90 [4]: 0.6 ± 0.07 µM

Molecule: CC1=C(c2nc(-c3ccc(C#N)cc3)cs2)C(c2cccc(O)c2)NC(=O)N1 (stereo not shown) [1i, 4-(2-(4-(3-Hydroxyphenyl)-6-methyl-2-oxo-1,2,3,4-tetrahydropyrimidin-5-yl)thiazol-4-yl)benzonitrile]
- PBMC TC50 [1]: 84 ± 8.2 µM
- Papp at 100 μM [5]: 0.0145 ×10⁻⁶ cm/s

Molecule: CC1=C(c2nc(-c3ccc(C#N)cc3)cs2)C(c2ccc(Br)nc2)NC(=O)N1 (stereo not shown) [1am, 4-(2-(4-(6-Bromopyridin-3-yl)-6-methyl-2-oxo-1,2,3,4-tetrahydropyrimidin-5-yl)thiazol-4-yl)benzonitrile]
- TC50 (NL4-3 row) [2]: >100 µM
- Papp at 100 μM [5]: 0.0151 ×10⁻⁶ cm/s

Molecule: CC1=C(c2nc(-c3ccc(C#N)cc3)cs2)C(c2cc3ccccc3n2C)NC(=O)N1 (stereo not shown) [1ad, 4-(2-(6-Methyl-4-(1-methyl-1H-indol-2-yl)-2-oxo-1,2,3,4-tetrahydropyrimidin-5-yl)thiazol-4-yl)benzonitrile]
- TC50 (A17 row) [2]: >100 µM
- TC50 (NL4-3 row) [2]: >100 µM
- Papp at 100 μM [5]: 0.0891 ×10⁻⁶ cm/s
- IC50 [3, 11]: 0.74 µM

Molecule: 3-Methyl-4-(2-(6-methyl-4-(1-methyl-1H-indol-2-yl)-2-oxo-1,2,3,4-tetrahydropyrimidin-5-yl)thiazol-4-yl)benzonitrile [1at]
- PBMC TC50 [1]: >100 ^d μM
- TC50 (A17 row) [2]: >100 µM
- TC50 (NL4-3 row) [2]: >100 µM
- MAGI-CCR5 TC50 [2]: >100 µM
- IC50 [3, 9]: 0.39 ± 0.05 µM
- IC90 [3, 10]: 1.9 ± 0.3 µM
- IC50 [4]: 0.39 ± 0.05 µM
- IC90 [4]: 4.8 ± 0.6 µM

Molecule: COc1ccc(C2NC(=O)NC(C)=C2c2nc(-c3ccc(C#N)cc3)cs2)cn1 (stereo not shown) [1an, 4-(2-(4-(6-Methoxypyridin-3-yl)-6-methyl-2-oxo-1,2,3,4-tetrahydropyrimidin-5-yl)thiazol-4-yl)benzonitrile]
- TC50 (NL4-3 row) [2]: >100 µM
- Papp at 100 μM [5]: 0.0562 ×10⁻⁶ cm/s

Molecule: CC1=C(c2nc(-c3ccc(C#N)cc3)cs2)[C@H](c2cccc(O)c2)NC(=O)N1 [(S)-1i]
- PBMC TC50 [1]: >100 µM
- RT biochemical IC50 (μM) ± SD [6]: Not active

Molecule: CC1=C(c2nc(-c3ccc(C#N)cc3)cs2)C(c2ccc(OCc3ccccc3)cc2)NC(=O)N1 (stereo not shown) [1q, 4-(2-(4-(4-(Benzyloxy)phenyl)-6-methyl-2-oxo-1,2,3,4-tetrahydropyrimidin-5-yl)thiazol-4-yl)benzonitrile]
- IC50 [3, 11]: < 0.15 µM

Molecule: CC1=C(c2nc(-c3ccc(C#N)cc3)cs2)C(c2ccc(Oc3ccccc3)cc2)NC(=O)N1 (stereo not shown) [1p, 4-(2-(6-Methyl-2-oxo-4-(4-phenoxyphenyl)-1,2,3,4-tetrahydropyrimidin-5-yl)thiazol-4-yl)benzonitrile]
- IC50 [3, 11]: < 0.15 µM

Molecule: CC1=C(c2nc(-c3ccc(C#N)cc3)cs2)C(c2ccc(Cl)nc2)NC(=O)N1 (stereo not shown) [1ai, 4-(2-(4-(6-Chloropyridin-3-yl)-6-methyl-2-oxo-1,2,3,4-tetrahydropyrimidin-5-yl)thiazol-4-yl)benzonitrile]
- Papp at 100 μM [5]: 0.0398 ×10⁻⁶ cm/s

Molecule: COc1ccc(C2NC(=O)NC(C)=C2c2nc(-c3ccc(C#N)cc3)cs2)cc1 (stereo not shown) [1m, 4-(2-(4-(4-Methoxyphenyl)-6-methyl-2-oxo-1,2,3,4-tetrahydropyrimidin-5-yl)thiazol-4-yl)benzonitrile]
- TC50 (NL4-3 row) [2]: 5.5 ± 1.0 µM
- Papp at 100 μM [5]: 0.0776 ×10⁻⁶ cm/s
- IC50 [3, 11]: < 0.15 µM

Molecule: CC1=C(c2nc(-c3ccc(C#N)cc3)cs2)[C@@H](c2cccc(O)c2)NC(=O)N1 [(R)-1i]
- PBMC TC50 [1]: >100 µM

Molecule: CC1=C(c2nc(-c3ccc(C#N)cc3)cs2)C(c2ccc(O)cc2)NC(=O)N1 (stereo not shown) [1l, 4-(2-(4-(4-Hydroxyphenyl)-6-methyl-2-oxo-1,2,3,4-tetrahydropyrimidin-5-yl)thiazol-4-yl)benzonitrile]
- TC50 (NL4-3 row) [2]: 46 ± 6.1 µM
- Papp at 100 μM [5]: 0.0151 ×10⁻⁶ cm/s

Molecule: CC1=C(c2nc(-c3ccc(C#N)cc3)cs2)C(c2ccc(F)nc2)NC(=O)N1 (stereo not shown) [1ae, 4-(2-(4-(6-Fluoropyridin-3-yl)-6-methyl-2-oxo-1,2,3,4-tetrahydropyrimidin-5-yl)thiazol-4-yl)benzonitrile]
- TC50 (NL4-3 row) [2]: >100 µM
- Papp at 100 μM [5]: 0.575 ×10⁻⁶ cm/s

Molecule: 4-(2-(6-Methyl-2-oxo-4-(pyridin-4-yl)-1,2,3,4-tetrahydropyrimidin-5-yl)thiazol-4-yl)benzonitrile [1z]
- PBMC TC50 [1]: >100.00 µM
- MAGI-CCR5 TC50 [2]: >100.00 µM
- IC50 [3, 9]: 1.4 ± 0.4 µM
- IC90 [3, 10]: > 100 µM

Molecule: COc1ccc(-c2csc(C3=C(C)NC(=O)NC3c3cccc(O)c3)n2)cc1 (stereo not shown) [1b]
- PBMC TC50 [1]: 91 ^e μM

Molecule: 4-(2-(6-Methyl-2-oxo-4-(quinolin-2-yl)-1,2,3,4-tetrahydropyrimidin-5-yl)thiazol-4-yl)benzonitrile [1aa]
- PBMC TC50 [1]: 68.3 ± 22.1 µM
- MAGI-CCR5 TC50 [2]: >100.00 µM
- IC50 [3, 9]: 3.8 ± 1 µM
- IC90 [3, 10]: 98.3 ± 1.7 µM

Molecule: CC1=C(c2nc(-c3ccc(C#N)cc3)cs2)C(c2ccc(C(F)(F)F)nc2)NC(=O)N1 (stereo not shown) [1ar, 4-(2-(6-Methyl-2-oxo-4-(6-(trifluoromethyl)pyridin-3-yl)-1,2,3,4-tetrahydropyrimidin-5-yl)thiazol-4-yl)benzonitrile]
- TC50 (NL4-3 row) [2]: >100 µM

Molecule: 4-(2-(6-Methyl-2-oxo-4-(pyridin-3-yl)-1,2,3,4-tetrahydropyrimidin-5-yl)thiazol-4-yl)benzonitrile [1y]
- PBMC TC50 [1]: >100.00 µM
- MAGI-CCR5 TC50 [2]: >100.00 µM
- PAMPA (LogPe) ([5]; polar brain lipid membrane, predicts BBB permeability): −7.50 ± 0.10
- Plasma Stability (%) [7]: 89.42 ± 2.93%
- Microsomal Stability (%) [8]: 75.55 ± 7.86%
- IC50 [3, 9]: 2.9 ± 0.1 µM
- IC90 [3, 10]: > 100 µM

Molecule: 4-(2-(6-Methyl-2-oxo-4-(pyridin-2-yl)-1,2,3,4-tetrahydropyrimidin-5-yl)thiazol-4-yl)benzonitrile [1x]
- PBMC TC50 [1]: >100.00 µM
- MAGI-CCR5 TC50 [2]: >100.00 µM
- IC50 [3, 9]: 2 ± 0.5 µM
- IC90 [3, 10]: > 100 µM
